Measurements from publication PMC2180961 (The Journal of Experimental Medicine, 1977).
Each block holds one molecule with its values, some of them ahead of it.

Assays:
rat mast cell chymase [1] = molecular target: T1, rat mast cell chymase (Rattus norvegicus, UniProt P09650); experiment: […]-casein proteolysis assay; assay type: biochemical; conditions: read-out: % inhibition at 300 mM
T1 sequence (P09650 21-260): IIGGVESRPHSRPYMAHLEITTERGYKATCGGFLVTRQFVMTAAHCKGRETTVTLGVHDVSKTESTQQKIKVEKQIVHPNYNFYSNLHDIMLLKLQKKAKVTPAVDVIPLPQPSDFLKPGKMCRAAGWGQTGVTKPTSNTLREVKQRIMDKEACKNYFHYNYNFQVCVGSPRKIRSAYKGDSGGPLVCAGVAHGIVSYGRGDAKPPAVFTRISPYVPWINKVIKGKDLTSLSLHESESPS

[2] = system: CCOC(=O)[C@H](Cc1ccc(O)cc1)NC(=O)c1ccccc1; experiment: purified protein; conditions: 25 C, same experiment as chymase, unit M not printed beside this value
rat mast cell chymase [3] = molecular target: T1, rat mast cell chymase; experiment: […]-casein proteolysis assay; assay type: biochemical
purified protein = substrate: CCOC(=O)[C@H](Cc1ccc(O)cc1)NC(=O)c1ccccc1; experiment: purified protein; assay type: biochemical, Rattus norvegicus; conditions: 25 C, abstract and summary print 1.5 x 10^-3 M (apparent Km)

inhibition at 300000 µM (rat mast cell chymase [1]): 20%
Molecule: NCCc1c[nH]cn1 [histamine]

Molecule: alpha-chymotrypsin (Bos taurus)
Km [2]: 1170 µM

Molecule: NCCc1c[nH]c2ccc(O)cc12 [5-HT]
IC50 (rat mast cell chymase [3]): 3 mM

B1: rat mast cell chymase (Rattus norvegicus) (protein)
chain: T1 sequence (P09650 21-260)
Km (purified protein): 1560 µM
